Measurements taken from patent US10954216B2, “BMP-signal-inhibiting compound” (RIKEN, priority 2016, dated 2021).
Read-outs that look alike come from different tables or passages of the source.

Assays:
[1] = tested on: BMP signal in MDA-231-D-BREFluc/Rluc cells; assay: BMP signal inhibitory effect (AlphaScreen SureFire SMAD1 p-Ser463/465, BMP-6 stimulation); type: cell-based
Outline: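 MDA-231-D-BREFluc/Rluc cells were pretreated with compound for 2 h at 37° C, then stimulated with BMP-6 for 30 min. SMAD1 p-Ser463/465 in lysates was measured by AlphaScreen SureFire.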

[2] = target: human ALK3 (Homo sapiens (Human), UniProt P36894); assay: ALK3 enzyme inhibitory effect (33P-ATP kinase assay, Reaction Biology); type: biochemical; details: for inhibition at 0.3 µM: read-out: Inhibition rate at 300 nM; for inhibition at 0.37 µM: ALK3, test compound 370 nM (asterisk footnote), read-out: inhibition rate at 370 nM
Source text: (§1) ALK Enzyme Inhibitory Effect
(§2) Evaluation conditions were described in the following web pages. http://www.reactionbiology.corrilwebapps/site/Kinase_Assay_Protocol.aspx http://www.reactionbiology.corrilwebapps/site/KinaseDetail.aspx?page=Kinases&id=1

[3] = target: human ALK2 (Homo sapiens (Human), UniProt Q04771); assay: ALK2 enzyme inhibitory effect (33P-ATP kinase assay, Reaction Biology); type: biochemical; details: ALK2, 10 μM ATP, 20 μM casein
Source text: as §1, §2

[4] = target: human ALK6 (Homo sapiens (Human), UniProt O00238); assay: ALK6 enzyme inhibitory effect (33P-ATP kinase assay, Reaction Biology); type: biochemical; details: for inhibition at 0.3 µM: read-out: Inhibition rate at 300 nM; for inhibition at 0.37 µM: ALK6, test compound 370 nM (asterisk footnote), read-out: inhibition rate at 370 nM
Source text: as §1, §2

[5] = BMP-6 stimulated MDA-231-D-BREFluc/Rluc cells, phospho-SMAD1 AlphaScreen, read-out: IC50

Chain of human ALK2 (Q04771 21-509): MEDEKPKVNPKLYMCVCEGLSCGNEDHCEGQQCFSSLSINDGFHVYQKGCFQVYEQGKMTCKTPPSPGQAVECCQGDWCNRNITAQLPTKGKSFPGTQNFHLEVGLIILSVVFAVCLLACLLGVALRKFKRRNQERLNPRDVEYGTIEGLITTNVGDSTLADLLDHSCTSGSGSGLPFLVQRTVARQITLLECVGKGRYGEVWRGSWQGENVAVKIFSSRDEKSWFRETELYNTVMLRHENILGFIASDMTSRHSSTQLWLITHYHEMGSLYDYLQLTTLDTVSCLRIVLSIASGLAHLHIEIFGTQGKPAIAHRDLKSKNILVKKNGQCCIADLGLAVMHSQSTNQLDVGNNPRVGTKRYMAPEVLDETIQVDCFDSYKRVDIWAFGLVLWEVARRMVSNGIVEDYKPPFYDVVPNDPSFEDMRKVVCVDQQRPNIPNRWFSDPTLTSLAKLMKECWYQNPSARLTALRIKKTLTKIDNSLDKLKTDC
Chain of human ALK6 (O00238 14-502): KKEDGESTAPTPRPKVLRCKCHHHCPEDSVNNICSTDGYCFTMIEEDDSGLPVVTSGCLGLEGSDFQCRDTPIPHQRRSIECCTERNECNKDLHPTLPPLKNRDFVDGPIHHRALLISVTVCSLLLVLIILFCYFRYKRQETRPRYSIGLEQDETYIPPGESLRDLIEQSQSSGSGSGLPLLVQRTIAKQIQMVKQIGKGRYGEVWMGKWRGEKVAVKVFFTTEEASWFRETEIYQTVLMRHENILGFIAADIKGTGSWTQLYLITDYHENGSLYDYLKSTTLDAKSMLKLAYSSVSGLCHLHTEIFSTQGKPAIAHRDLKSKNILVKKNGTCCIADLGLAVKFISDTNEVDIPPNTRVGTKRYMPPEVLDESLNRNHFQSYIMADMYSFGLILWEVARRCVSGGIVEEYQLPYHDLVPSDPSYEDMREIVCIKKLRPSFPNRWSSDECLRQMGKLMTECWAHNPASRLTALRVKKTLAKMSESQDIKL
Chain of human ALK3 (P36894 24-532): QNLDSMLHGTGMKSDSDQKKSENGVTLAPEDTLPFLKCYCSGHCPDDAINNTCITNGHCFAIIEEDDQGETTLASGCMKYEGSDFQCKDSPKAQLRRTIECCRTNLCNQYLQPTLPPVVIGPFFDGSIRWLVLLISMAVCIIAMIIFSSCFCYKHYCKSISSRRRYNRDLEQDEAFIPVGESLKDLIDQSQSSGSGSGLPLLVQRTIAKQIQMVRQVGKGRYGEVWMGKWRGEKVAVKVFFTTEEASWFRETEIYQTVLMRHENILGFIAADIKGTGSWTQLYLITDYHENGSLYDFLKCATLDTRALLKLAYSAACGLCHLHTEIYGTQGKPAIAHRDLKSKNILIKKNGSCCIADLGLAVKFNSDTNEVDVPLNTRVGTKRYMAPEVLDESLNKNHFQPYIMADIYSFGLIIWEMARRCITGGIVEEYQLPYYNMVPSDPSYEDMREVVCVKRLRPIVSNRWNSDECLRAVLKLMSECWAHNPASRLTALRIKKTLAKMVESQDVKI

Row | IC50 [1, 5] | inhibition at 0.3 µM ([2]; ALK3, test compound 300 nM) | IC50 [3] | inhibition at 0.3 µM ([4]; ALK6, test compound 300 nM) | inhibition at 0.37 µM [2] | inhibition at 0.37 µM [4] | SMILES | IC50 [1] | inhibition at 0.3 µM [2] | inhibition at 0.3 µM [4]
1 | 26.7 nM | 52% | 24.2 nM | 79.6% | – | – | CCn1cc(-c2ccnc(Nc3ccc(C(=O)N4CCN(c5ccc(F)cc5)CC4)cc3)n2)c(-c2cccnc2)n1 [Example 3, (4-((4-(1-ethyl-3-(pyridin-3-yl)-1H-pyrazol-4-yl)pyrimidin-2-yl)amino)phenyl)(4-(4-fluorophenyl)piperazin-1-yl)methanone] | – | – | –
2 | 30.1 nM | 51.4% | 45 nM | 90.2% | – | – | CCn1cc(-c2ccnc(Nc3ccc(N4CCN(C5COC5)CC4)cc3)n2)c(-c2cccnc2)n1 [Example 15, 4-(1-ethyl-3-(pyridin-3-yl)-1H-pyrazol-4-yl)-N-(4-(4-(oxetan-3-yl)piperazin-1-yl)phenyl)pyrimidin-2-amine] | – | – | –
3 | 22.6 nM | 50.4% | 54 nM | 88% | – | – | CCn1cc(-c2ccnc(Nc3ccc(N4CCN(CCOC)CC4)cc3)n2)c(-c2cccnc2)n1 [Example 17, 4-(1-ethyl-3-(pyridin-3-yl)-1H-pyrazol-4-yl)-N-(4-(4-(2-methoxyethyl)piperazin-1-yl)phenyl)pyrimidin-2-amine] | – | – | –
4 | 23.3 nM | 59.3% | 25 nM | 88.4% | – | – | CCn1cc(-c2ccnc(Nc3ccc(N4CCN(Cc5ccccc5)CC4)cc3)n2)c(-c2cccnc2)n1 [Example 19, N-(4-(4-benzylpiperazin-1-yl)phenyl)-4-(1-ethyl-3-(pyridin-3-yl)-1H-pyrazol-4-yl)pyrimidin-2-amine] | – | – | –
5 | 28.1 nM | 52.2% | 67 nM | 91.6% | – | – | CCn1cc(-c2ccnc(Nc3ccc(N4CCCCC4)cc3)n2)c(-c2cccnc2)n1 [Example 49, 4-(1-ethyl-3-(pyridin-3-yl)-1H-pyrazol-4-yl)-N-(4-(piperidin-1-yl)phenyl)pyrimidin-2-amine] | – | – | –
6 | 22.8 nM | 48% | 40 nM | 76% | – | – | COCCn1cc(-c2ccnc(Nc3ccc(N4CCNCC4)cc3)n2)c(-c2cccnc2)n1 [Example 71, 4-(1-(2-methoxyethyl)-3-(pyridin-3-yl)-1H-pyrazol-4-yl)-N-(4-(piperazin-1-yl)phenyl)pyrimidin-2-amine] | – | – | –
7 | 70.8 nM | – | 18 nM | – | 48.8% | 70.4% | c1cncc(-c2nn(C3COC3)cc2-c2ccnc(Nc3ccc(N4CCN(C5COC5)CC4)cc3)n2)c1 [Example 101, 4-(1-(oxetan-3-yl)-3-(pyridin-3-yl)-1H-pyrazol-4-yl)-N-(4-(4-(oxetan-3-yl)piperazin-1-yl)phenyl)pyrimidin-2-amine] | – | – | –
8 | 16.4 nM | 65.8% | 13.2 nM | 93.5% | – | – | CCn1cc(-c2ccnc(Nc3ccc(N4CCN(CC(C)(C)O)CC4)cc3)n2)c(-c2cccnc2)n1 [Example 104, 1-(4-(4-((4-(1-ethyl-3-(pyridin-3-yl)-1H-pyrazol-4-yl)pyrimidin-2-yl)amino)phenyl)piperazin-1-yl)-2-methylpropan-2-ol] | – | – | –
9 | 4 nM | 59% | 15 nM | 85% | – | – | CCn1cc(-c2ccnc(Nc3ccc4c(c3)CCN(CCOC)C4)n2)c(-c2cccnc2)n1 [Example 126, N-(4-(1-Ethyl-3-(pyridin-3-yl)-1H-pyrazol-4-yl)pyrimidin-2-yl)-2-(2-methoxyethyl)-1,2,3,4-tetrahydroisoquinolin-6-amine] | – | – | –
10 | 1.8 nM | 55.7% | 33 nM | 92.2% | – | – | CCn1cc(-c2ccnc(Nc3ccc4c(c3)CCN(C)C4)n2)c(-c2cccnc2)n1 [Example 129, N-(4-(1-Ethyl-3-(pyridin-3-yl)-1H-pyrazol-4-yl)pyrimidin-2-yl)-2-methyl-1,2,3,4-tetrahydroisoquinolin-6-amine] | – | – | –
11 | 11.7 nM | 60% | 54 nM | 77% | – | – | CC(C)(C)n1cc(-c2ccnc(Nc3ccc(N4CCNCC4)cc3)n2)c(-c2cccnc2)n1 [Example 135] | – | – | –
12 | 35.6 nM | 47.9% | 46.2 nM | 85.3% | – | – | c1cncc(-c2nn(C3COC3)cc2-c2ccnc(Nc3ccc(N4CCNCC4)cc3)n2)c1 [Example 137, 4-(1-(Oxetan-3-yl)-3-(pyridin-3-yl)-1H-pyrazol-4-yl)-N-(4-(piperazin-1-yl)phenyl)pyrimidin-2-amine] | – | – | –
13 | 7.3 nM | 62.7% | 87.2 nM | 92.6% | – | – | c1ccc(CCn2cc(-c3ccnc(Nc4ccc(N5CCNCC5)cc4)n3)c(-c3cccnc3)n2)cc1 [Example 142, 4-(1-Phenethyl-3-(pyridin-3-yl)-1H-pyrazol-4-yl)-N-(4-(piperazin-1-yl)phenyl)pyrimidin-2-amine] | – | – | –
14 | 9.1 nM | 63.5% | 62.5 nM | 86.5% | – | – | FC(F)Cn1cc(-c2ccnc(Nc3ccc(N4CCNCC4)cc3)n2)c(-c2cccnc2)n1 [Example 149, 4-(1-(2,2-Difluoroethyl)-3-(pyridin-3-yl)-1H-pyrazol-4-yl)-N-(4-(piperazin-1-yl)phenyl)pyrimidin-2-amine] | – | – | –
15 | 3.6 nM | – | – | – | 56.1% | 93% | CCn1cc(-c2ccnc(Nc3ccc(N4CCNCC4)cc3)n2)c(-c2cccnc2)n1 [Example 151, 4-(1-Ethyl-3-(pyridin-3-yl)-1H-pyrazol-4-yl)-N-(4-(piperazin-1-yl)phenyl)pyrimidin-2-amine] | – | – | –
16 | 7.2 nM | 53% | 15 nM | 82% | – | – | CCn1cc(-c2ccnc(Nc3ccc(N4CCNCC4)c(F)c3)n2)c(-c2cccnc2)n1 [Example 152, 4-(1-Ethyl-3-(pyridin-3-yl)-1H-pyrazol-4-yl)-N-(3-fluoro-4-(piperazin-1-yl)phenyl)pyrimidin-2-amine] | – | – | –
17 | 8.5 nM | – | 57 nM | – | 48.8% | 86.5% | CCn1cc(-c2ccnc(Nc3ccc(N4CCNCC4)nc3)n2)c(-c2cccnc2)n1 [Example 155, 4-(1-Ethyl-3-(pyridin-3-yl)-1H-pyrazol-4-yl)-N-(6-(piperazin-1-yl)pyridin-3-yl)pyrimidin-2-amine] | – | – | –
18 | 4.5 nM | 49.5% | 25 nM | 94.2% | – | – | CCn1cc(-c2ccnc(Nc3ccc(C4CCNCC4)cc3)n2)c(-c2cccnc2)n1 [Example 162, 4-(1-Ethyl-3-(pyridin-3-yl)-1H-pyrazol-4-yl)-N-(4-(piperidin-4-yl)phenyl)pyrimidin-2-amine] | – | – | –
19 | – | – | – | – | – | – | CCn1cc(-c2ccnc(Nc3ccc(C4CC5CCC(C4)N5)cc3)n2)c(-c2cccnc2)n1 (centres unmarked) [Example 163, N-(4-(8-Azabicyclo [3.2.1]octan-3-yl)phenyl)-4-(1-ethyl-3-(pyridin-3-yl)-1H-pyrazol-4-yl)pyrimidin-2-amine] | 4.9 nM | 47.6% | 96.2%
20 | 12.4 nM | 67.5% | 36.1 nM | 92.2% | – | – | CCn1cc(-c2ccnc(Nc3ccc(-c4cnn(C5CCNCC5)c4)cc3)n2)c(-c2cccnc2)n1 [Example 167, 4-(1-Ethyl-3-(pyridin-3-yl)-1H-pyrazol-4-yl)-N-(4-(1-(piperidin-4-yl)-1H-pyrazol-4-yl)phenyl)pyrimidin-2-amine] | – | – | –
21 | 1.5 nM | 67.3% | 43 nM | 93.9% | – | – | CCn1cc(-c2ccnc(Nc3ccc4c(c3)CCNC4)n2)c(-c2cccnc2)n1 [Example 168, N-(4-(1-ethyl-3-(pyridin-3-yl)-1H-pyrazol-4-yl)pyrimidin-2-yl)-1,2,3,4-tetrahydroisoquinolin-6-amine] | – | – | –
22 | 1.6 nM | 66.6% | 18 nM | 96.5% | – | – | CCn1cc(-c2ccnc(Nc3ccc4c(c3)CNCC4)n2)c(-c2cccnc2)n1 [Example 169, N-(4-(1-ethyl-3-(pyridin-3-yl)-1H-pyrazol-4-yl)pyrimidin-2-yl)-1,2,3,4-tetrahydroisoquinolin-7-amine] | – | – | –
23 | 1.3 nM | 67.1% | 17 nM | 98.3% | – | – | CCn1cc(-c2ccnc(Nc3ccc4c(c3)CCNCC4)n2)c(-c2cccnc2)n1 [Example 171, N-(4-(1-Ethyl-3-(pyridin-3-yl)-1H-pyrazol-4-yl)pyrimidin-2-yl)-2,3,4,5-tetrahydro-1H-benzo [d] azepin-7-amine] | – | – | –
24 | 10.8 nM | 74.6% | 46.8 nM | 93.6% | – | – | CCn1cc(-c2ccnc(Nc3ccc4c(c3)CCN(C(=O)CO)C4)n2)c(-c2cccnc2)n1 [Example 175, 1-(6-((4-(1-Ethyl-3-(pyridin-3-yl)-1H-pyrazol-4-yl)pyrimidin-2-yl)amino)-3,4-dihydroisoquinolin-2(1H)-yl)-2-hydroxyethan-1-one] | – | – | –

Row | SMILES | IC50 [1, 5] | inhibition at 0.3 µM ([2]; ALK3, test compound 300 nM) | IC50 [3] | inhibition at 0.3 µM ([4]; ALK6, test compound 300 nM) | inhibition at 0.37 µM [2] | inhibition at 0.37 µM [4] | IC50 [1] | inhibition at 0.3 µM [2] | inhibition at 0.3 µM [4]
25 | CCn1cc(-c2ccnc(Nc3ccc4c(c3)CCN(C(C)=O)C4)n2)c(-c2cccnc2)n1 [Example 75, 1-(6-((4-(1-Ethyl-3-(pyridin-3-yl)-1H-pyrazol-4-yl)pyrimidin-2-yl)amino)-3,4-dihydroisoquinolin-2(1H)-yl)ethan-1-one] | 14.8 nM | 67.5% | 28 nM | 92.9% | – | – | – | – | –
